The results in this text go back to PMC9253268 (Frontiers in Immunology, 2022).

Where two headings read alike, the source gives them in different places.

In general, Cmax refers to the maximum level reached in the sampled fluid or tissue. Usually AUC(0-t) stands for the area under the concentration-time curve up to a stated or last time point. Higher therefore signals high exposure. For orientation: AUC(0-inf) means total exposure, with the tail of the curve extrapolated. High values mean high exposure, low ones low exposure. The Kd is the equilibrium constant for the complex coming apart. Broadly, the Tmax is the time from dosing to the highest level.

The subject of one data set is MH7A cells. Nature of the data set: LPS/ATP-induced pyroptosis in MH7A cells (TUNEL, immunofluorescence, Western blotting, ELISA). The following applies: for GSDMD-NT / expression levels of NLRP3, ASC, and caspase-1 / levels of IL-1β, IL-18, and LDH release in the supernatant: LPS/ATP-induced MH7A cells; for GSDMD-NT: Western blotting; for expression levels of NLRP3, ASC, and caspase-1 / levels of IL-1β, IL-18, and LDH release in the supernatant: all p < 0.05; for number of TUNEL-positive MH7A cells: LPS/ATP-induced, BHGZD 28.54 μg/ml, MG 1.69 ng/ml, CA 0.13 ng/ml, 24 h. The format is cell-based, human. Background: Immunoblotting shows a protein as a band on a membrane.

The nature of data set [1]: In vivo pharmacokinetic analysis of MG and CA after oral BHGZD (UHPLC-QTRAP-MS/MS). The note with it: rat plasma after oral BHGZD 21.4 g/kg each day, n = 3; for AUC(0-t): 0-24 h; for MRT last: read-out: MRT(0-t); for MRT inf: read-out: MRT(0-∞). The method, then: The pharmacokinetic parameters were calculated by Drug and Statistic software (Shanghai, China). Detailed information on the collection of blood samples and UHPLC-QTRAP-MS/MS conditions is provided in Supplementary Materials Section 13 . […]
Section 13 Pharmacokinetic analysis […]
administration of BHGZD, ultra-fast liquid chromatography coupled with triple quadrupole-linear ion trap composite mass spectrometry (UHPLC-QTRAP-MS/MS) system was […]
Bioanalytical Method Validation issued by Chinese Pharmacopoeia Commission in 2020.
The pharmacokinetic parameters were calculated by Drug and Statistic software […]
1) Collection of blood samples
Male Lewis rats (n=6, 6-8 weeks-old, 200±20g in weight) were purchased from Beijing Vital River Laboratory Animal Technology Co., Ltd. (SCCK 2016-0006, Beijing, China; n=3 per group, including normal control group and normal control+BHGZD treatment group).
Diet was prohibited for 12h before the experiment but water was freely available. Blood samples (~0.25mL) were collected from the retinal venous plexus into heparinized 1.5mL polythene tubes before administration and 0, 0.25, 0.5, 1, 2, 3, 4, 6, 8,12 and 24h after administration of BHGZD. The plasma samples were obtained after centrifuging at 12000rpm for 15min, and stored at -20℃ prior to analysis.
2) UHPLC-QTRAP-MS/MS conditions
Quantification analysis were performed on an ultra-high-performance liquid chromatography (Shimadzu Corp., Japan) tandem ion trap quadrupole QTRAP 6500 plus mass spectrometry (AB Sciex, USA). Chromatographic separation was conducted using a Poroshell 120 EC-C18 column (3.0×50mm, 2.7μm) at 40℃. The mobile phase was consisted of 0.1% formic acid–water (v/v, A) and methanol (B) and elution program were:
Mass spectrometry detector were conducted in negative mode and the detecting parameters were set as follows: curtain gas, 35 psi; collision gas, medium; ionspray voltage, 4500 V; temperature, 550℃; ion source gas 1 and 2, 55psi. Quantitative ion pairs were optimized for MG: m/z 421.2-301.1 (declustering potential: 63V, CE: 30eV) and for […]
Data acquisition and analysis

The subject of data set [2] is RAW264.7 cells. Nature of the data set: LPS/ATP-induced pyroptosis in RAW264.7 cells (flow cytometry, FAM-FLICA, immunofluorescence, Western blotting, ELISA). The format is cell-based, mouse. The following applies: for GSDMD-NT / expression levels of NLRP3, ASC, and caspase-1 / levels of IL-1β, IL-18, and LDH release in the supernatant: LPS/ATP-induced RAW264.7 cells; for GSDMD-NT: Western blotting; for expression levels of NLRP3, ASC, and caspase-1 / levels of IL-1β, IL-18, and LDH release in the supernatant / PI positive cell rate / inhibition on cell pyroptosis induced by LPS/ATP, alone versus combination: all p < 0.05; for PI positive cell rate / number of FLICA-positive RAW264.7 cells: LPS/ATP-induced, 24 h; for PI positive cell rate: 1.69 ng/ml MG, 0.13 ng/ml CA, inferior to BHGZD; for number of FLICA-positive RAW264.7 cells: BHGZD 28.54 μg/ml, MG 1.69 ng/ml, CA 0.13 ng/ml; for inhibition on cell pyroptosis induced by LPS/ATP, alone versus combination: RAW264.7 and MH7A cells. (A flow cytometer gives signals particle by particle.)
Text: (§3) Mouse macrophage cell line (RAW264.7 cells, Bio-Swamp, Wuhan, China) and fibroblast-like synoviocytes in patients with RA (MH7A cells, Riken cell bank, Ibaraki, Japan) at passage numbers four to eight were used in the current experiment validations.
(§4) The concentration of DMSO was less than 1‰ of the solution for the in vitro experiment.
Fluorescence images were visualized and photographed with a confocal microscope (Zeiss LSM 880, Carl Zeiss, Jena, Germany).
The images were visualized and photographed with a confocal microscope (Zeiss LSM 880, Carl Zeiss, Jena, Germany) or an inverted fluorescence microscope (MF53, MSHOT, Guangzhou, China).
(§5) To evaluate the therapeutic effects of two BACs from BHGZD on the regulation of the “immune-inflammation” system, the levels of cytokines, proteins, and LDH release in RAW264.7 and MH7A cellular supernatant, as well as the sera of AIA-M rats were determined using enzyme-linked immunosorbent assay (ELISA) to assess the integrity of membranes in accordance with the manufacturer’s guidelines.
Raw264.7 cells were maintained in DMEM (Hyclone, Logan, UT, USA), supplemented
100μg/mL streptomycin and 2mM L-glutamine (TBD, Tianjin, China) in a humidified 5%
CO2 incubator at the temperature of 37℃. The Raw264.7 cells at passage numbers four
to eight were used in the current experiment validations.
MH7A cells were cultured in sterile synoviocyte growth medium (Cell Applicatio ns, Inc.,
L-glutamine (TBD, Tianjin, China) in a humidified 5% CO2 incubator at the temperature of
37℃. MH7A at passage numbers four to eight were used in the current experiment
(§6) To induce a conventional NLRP3 inflammasome activation, Raw264.7cells was induced
(§7) with 0.2μg/mL lipopolysaccharide [LPS, Escherichia coli (O111:B4), Sigma-Aldrich, St
(§8) Louis, MO, USA] for 4h, followed with a 3mM ATP adenosine triphosphate (ATP disodium
(§9) salt hydrate, Sigma-Aldrich, St Louis, MO, USA) for 1h of incubation at 37℃ with 5% CO2
(§10) For MH7A cells LPS/ATP-induced pyrotosis, MH7A cells were induced with 1μg/mL LPS
(§11) for 6h, followed with a 3mM ATP for 1h of incubation at 37℃ with 5% CO2 (11).

In data set [3] the test system is RAW264.7 cells. Nature of the data set: Cell viability, CCK-8 assay. In kind it is cell-based, mouse. The following applies: 0.21–6.74 ng/ml MG or 0.02–0.52 ng/ml CA treatment alone. On the procedure: Cell viability was analyzed with the cell counting kit-8 (CCK-8) assay kit (Beyotime Biotechnology, Shanghai, China) as described in Supplementary Materials Section 16 .
Section 16 Cell proliferation assay
Cell viability was analyzed with Cell Counting Kit-8 (CCK-8) assay kit (Beyotime Biotechnology, China). Raw264.7 cells were seeded into 96-well plate, and after […]
solution was added to each well. The absorbance was measured after 4h of incubation at […]
Section 17 Flow cytometry
To identify and quantify of pyroptosis population of Raw264.7 cells, FITC Apoptosis Detection kit I staining with both the Annexin V-fluorescein isothiocyanate and propidium iodide (PI, BD Biosciences, San Jose, CA, USA) was used in accordance with manufacturer's guidelines. Briefly, Raw264.7 cells was washed twice with cold PBS and then resuspended in 1×binding buffer at a concentration of 1x10^6 cells/mL. Then, 100µL of the solution (1x10^5 cells) was transferred to a 5 mL culture tube. Subsequently, 5µL of FITC Annexin V and 5µL PI were added into cultured tube, and vortexed and incubated for 15 min at room temperature in the dark. Finally, 400µL 1×binding buffer was added into each tube, and analyzed by flow cytometry (ACEA Bioscience, San Diego, CA, USA) and NovoExpress 1.4.1 software (ACEA Bioscience, San Diego, CA, USA) within 1h.
(In general: Formazan colour is commonly taken as a measure of viable cells.)

The next data set has as its target T1, recombinant TLR4 protein (Homo sapiens, UniProt O00206).
T1 construct: purchased Abcam ab233665
As to the kind of experiment: Microscale thermophoresis (MST) binding assay. The following applies: 1:1 binding mode, read-out: mean KD, CA–TLR4. On the procedure: The binding affinity between recombinant TLR4 protein and CA was measured by a NanoTemper Monolith NT.115 instrument (NanoTemper Technologies, Germany). The K D value was fitted by NanoTemper Monolith affinity software (NanoTemper Technologies, Germany) using 1:1 binding mode. Detailed information on the MST assay is provided in Supplementary Materials Section 12 . […]
(§1) compound was greater than 9.0×106cm/s and 40% which indicated drug-like […]
(§2) Section 11 Surface plasmon resonance (SPR) assay
SPR binding assays were analyzed with Biacore 8K (Biacore, Cytiva). Materials and reagents used in SPR assays were purchased from Cytiva. […]
UK) and CA contained in BHGZD was measured by NanoTemper Monolith NT.115 instrument (NanoTemper Technologies, Germany). […]
After the protein labeling experiment was completed, TLR4 was diluted with binding buffer (20mM HEPES, pH 7.4, 100mM NaCl and 0.005% Tween 20) to ensure that the fluorescence intensity of TLR4 during the MST assay was about 500 RU. […]
After incubation, the samples were loaded into the premium treated capillaries and measured in NanoTemper Monolith NT.115 instrument (NanoTemper Technologies, Germany). […]
The pharmacokinetic parameters were calculated by Drug and Statistic software

Data set [4] in a line: Chemical profiling of BHGZD in sera (UFLC-Q-TOF-MS/MS). The following applies: 30 min after the treatment of BHGZD.
Text: A rapid, sensitive, and reliable method by the UFLC-Q-TOF-MS/MS system was used to identify the chemical profiling of BHGZD as described in Supplementary Materials Section 9 ([30]). The reference standards of these compounds ( Supplementary Table S2 ) were purchased from Chengdu Must Bio-technology Co., Ltd. (Chengdu, China), the National Institute for the Control of Pharmaceutical and Biological Products (Beijing, China), and Chengdu DeSiTe Biological Technology Co., Ltd. (Chengdu, China).
Sciex, Forster City, USA) with electrospray ionization source (ESI). Kinetex C18 column
(Phenomenex, 3.0×150 mm, 2.6μm, 100Å) was used to perform chromatographic
separation with a flow rate of 0.3mL/min at 40℃. A linear gradient program with mobile
phase system including solvent A (deionized water with 0.1% formic acid, v/v) and solvent
B (methanol) was described in details: solvent B (5~95%) for 40min, isocratic eluted at
95% B for 5min，95%~5% B (40-45min), followed a post-run of 2min to equilibrate the
The instrumental settings of Q-TOF-MS/MS were described in the previous study
(9).Samples were analyzed in both positive and negative ionization modes with scanning
mas-to-charge (m/z) range from 50 to 1500. Data was collected in information-dependent
acquisition (IDA) mode and analyzed by PeakView® 2.2 software (AB Sciex, Foster City,
Chemical identifications were based on reference standards and mass spectral
library (Natural Products HR-MS/MS Spectral Library, Version 1.0, AB Sciex, Forster City,
A further data set deals with T2, recombinant AKT1 protein (Homo sapiens, UniProt P31749).
T2 construct: His tag; purchased Abcam ab116412
Nature of the data set: Surface plasmon resonance (SPR) binding assay. The note with it: Biacore 8K, read-out: mean KD, MG–AKT. The method, then:
To confirm the binding affinity of recombinant AKT1 protein and MG, SPR assay was performed with Biacore 8K (Biacore, Cytiva), and the K D value was calculated using the Biacore 8K evaluation software 2.0 (GE Healthcare). Detailed information on SPR assay is provided in Supplementary Materials Section 11 . […]
as §1, §2
SPR binding assays were analyzed with Biacore 8K (Biacore, Cytiva). Materials and reagents used in SPR assays were purchased from Cytiva. The histidine-tagged AKT1 (Cat No. ab116412, Abcam, Cambridge, UK) was immobilized on the surface of Carboxymethylated (CM5) sensor chip through the standard amino coupling method. The carboxyl groups of the sensor surface were activated by injection of a solution containing 0.2M N-ethyl-N9-(3-dimethylaminopropyl) carbodiimide (EDC) and 0.05M N-hydroxysuccinimide (NHS), AKT1 in 10mM sodium acetate buffer was then injected at a flow rate of 10μL/min to couple to the sensor surface, and the remaining active sites in the […]
Sensor chips were primed twice with degassed physiological running buffer (PBS buffer). A reference flow cell was activated and blocked in the absence of AKT1. […]

The mark [5] stands for this setting: male, Lewis, rat, plasma, po, 21.4 g/kg, non-compartment model, read-out: Cmax.

T1 sequence (O00206 24-839): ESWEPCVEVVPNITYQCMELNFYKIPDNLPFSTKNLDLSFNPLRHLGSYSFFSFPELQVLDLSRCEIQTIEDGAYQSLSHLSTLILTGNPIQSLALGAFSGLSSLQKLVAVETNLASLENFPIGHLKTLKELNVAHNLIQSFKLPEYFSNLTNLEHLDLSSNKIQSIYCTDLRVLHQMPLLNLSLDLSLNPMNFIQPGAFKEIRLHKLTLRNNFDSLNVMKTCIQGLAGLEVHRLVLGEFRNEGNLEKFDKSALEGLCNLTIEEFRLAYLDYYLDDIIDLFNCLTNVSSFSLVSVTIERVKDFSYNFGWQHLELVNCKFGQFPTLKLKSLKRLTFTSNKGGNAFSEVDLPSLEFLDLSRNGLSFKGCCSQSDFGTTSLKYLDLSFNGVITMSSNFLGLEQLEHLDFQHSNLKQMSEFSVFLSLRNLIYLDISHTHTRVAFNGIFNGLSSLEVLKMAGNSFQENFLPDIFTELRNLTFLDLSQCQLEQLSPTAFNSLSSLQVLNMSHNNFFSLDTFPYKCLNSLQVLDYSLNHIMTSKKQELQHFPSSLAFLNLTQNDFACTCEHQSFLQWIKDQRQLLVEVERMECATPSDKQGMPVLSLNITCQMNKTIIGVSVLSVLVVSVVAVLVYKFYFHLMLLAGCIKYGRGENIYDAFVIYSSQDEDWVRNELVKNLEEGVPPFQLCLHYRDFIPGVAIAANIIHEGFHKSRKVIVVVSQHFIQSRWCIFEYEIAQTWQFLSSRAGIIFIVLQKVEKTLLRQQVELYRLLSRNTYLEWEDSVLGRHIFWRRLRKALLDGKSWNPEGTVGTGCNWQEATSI
T2 sequence (P31749 whole entry): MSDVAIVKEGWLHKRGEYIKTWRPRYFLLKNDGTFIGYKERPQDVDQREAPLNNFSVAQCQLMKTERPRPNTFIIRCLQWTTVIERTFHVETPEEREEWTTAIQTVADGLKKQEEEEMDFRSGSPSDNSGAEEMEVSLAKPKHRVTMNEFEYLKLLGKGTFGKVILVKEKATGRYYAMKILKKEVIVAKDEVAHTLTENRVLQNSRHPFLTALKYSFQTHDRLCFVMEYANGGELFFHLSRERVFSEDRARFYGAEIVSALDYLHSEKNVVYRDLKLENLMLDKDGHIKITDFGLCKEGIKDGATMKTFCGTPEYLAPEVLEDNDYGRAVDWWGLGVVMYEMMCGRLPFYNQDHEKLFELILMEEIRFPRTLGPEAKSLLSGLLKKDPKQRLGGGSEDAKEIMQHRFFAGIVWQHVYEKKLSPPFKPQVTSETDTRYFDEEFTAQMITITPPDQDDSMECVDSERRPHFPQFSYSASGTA
Text for MH7A cells: as §3
The conventional NLRP3 inflammasome activation cellular model was induced by lipopolysaccharide [LPS, Escherichia coli (O111:B4), Sigma-Aldrich, St Louis, MO, USA] and adenosine triphosphate (ATP disodium salt hydrate, Sigma-Aldrich, St Louis, MO, USA) as in our previous study ([22]) ( Supplementary Materials Section 15 ).
as §4
The occurrence of pyroptosis in both MH7A cells and synovium tissues in AIA-M rats was determined by in situ TUNEL staining (TUNEL Andy Fluor™ 594 Apoptosis Detection Kit, ABP Biosciences, Wuhan, China) in accordance with the manufacturer’s protocol. Fluorescence images were visualized and photographed with inverted fluorescence microscopes (MF53, MSHOT, Guangzhou, China; Olympus, BX51, Tokyo, Japan).
Double fluorescence staining was performed as described previously ([22]) ( Supplementary Materials Section 20 ). The images were visualized and photographed with a confocal microscope (Zeiss LSM 880, Carl Zeiss, Jena, Germany) or an inverted fluorescence microscope (MF53, MSHOT, Guangzhou, China).
To evaluate the regulation of BHGZD on the candidate targets in arthritic tissue samples, as well as RAW264.7 and MH7A cells, Western blotting analysis was carried out following the protocol as in our previous studies ([21], [24], [29]). TLR4, phospho-PI3K (p-PI3K), PI3K, p-AKT, p-NFκB-p65, NFκB-p65, NLRP3, ASC, caspase-1, the N-terminal domain of GSDMD (GSDMD-NT), and IL-1β antibodies were used as shown in Supplementary Table S3 . GAPDH (GAPDH Mouse monoclonal antibody, Abcam, Cambridge, UK) and β-actin (Anti-beta-Actin/β-Actin Antibody, Boster Biological Technology, California, USA) were used as loading controls for arthritic tissue samples and cultured cells, respectively.
as §5, §6, §7, §8, §9, §10, §11

With `O=C(O)/C=C/c1ccccc1` [CA, cinnamic acid], in the data set on MH7A cells, the GSDMD-NT result is on record as “decreased”; the “expression levels of NLRP3, ASC, and caspase-1” value (“expression levels of NLRP3, ASC” below) is given as “reduced”; the “levels of IL-1β, IL-18, and LDH release in the supernatant” value (“levels of IL-1β, IL-18, and LDH release” for short) was “reduced”; the “number of TUNEL-positive MH7A cells” value is listed as “reduced”. Besides, in data set [1] (apparent elimination half-life), the t1/2z was determined as 1.65 ± 1.34 h. Further, in data set [1] (setting [5]), the Cmax was 120 ± 25.9 ng/mL. Further, in data set [1] (male, Lewis), the AUC(0-t) was found to be 102 ± 67.8 ng·h/mL, the AUC(0-inf) was found to be 144 ± 30.4 ng·h/mL, the MRT last was found to be 1.93 ± 0.35 h and the MRT inf is 2.26 ± 0.8 h. In the data set with RAW264.7 cells [2], the GSDMD-NT result is recorded as “decreased”; the “expression levels of NLRP3, ASC” value was “reduced”; the “levels of IL-1β, IL-18, and LDH release” value was “reduced”; the “PI positive cell rate” value is given as “prominently reduced”. Further, in the data set on RAW264.7 cells [2], the “number of FLICA-positive RAW264.7 cells” value is “reduced” and the “inhibition on cell pyroptosis induced by LPS/ATP, alone versus combination” value is reported as “weaker than that in the two-BAC combination treatment group”. The “cell viability (CCK8)” value with RAW264.7 cells [3] is “no cell toxicity”. Moreover, the Kd on recombinant TLR4 protein was found to be 211 µM.

`O=c1c2cc(O)c(O)cc2oc2cc(O)c([C@@H]3O[C@H](CO)[C@@H](O)[C@H](O)[C@H]3O)c(O)c12` [MG, mangiferin]: in the data set on MH7A cells, the GSDMD-NT entry is listed as “decreased”; the “expression levels of NLRP3, ASC” value is recorded as “reduced”; the “levels of IL-1β, IL-18, and LDH release” value is “reduced”; the “number of TUNEL-positive MH7A cells” value is reported as “reduced”. Besides, the “quantitative detection in sera after the treatment of BHGZD” value in data set [4] is on record as “detected”. Moreover, in data set [1] (setting [5]), the Cmax was 132 ng/mL. In data set [1] (male, Lewis), the AUC(0-t) was 578 ± 183 ng·h/mL, the AUC(0-inf) was determined as 579 ± 182 ng·h/mL, the MRT last came to 4.23 ± 0.3 h and the MRT inf amounted to 4.25 ± 0.28 h. Also, in data set [1] (male, Lewis, apparent elimination half-life, read-out: t1/2z (converted)), the half-life is 1.26 ± 0.23 h. In addition, the Tmax in data set [1] (male, Lewis, non-compartment model) worked out at 4 h. Also, the Cmax in data set [1] (non-compartment model, listed as Mangiferin (MG)) is 132.07 ± 44.67 ng/mL. Further, in the data set on RAW264.7 cells [2], the GSDMD-NT result was “decreased”; the “expression levels of NLRP3, ASC” value is reported as “reduced”; the “levels of IL-1β, IL-18, and LDH release” value is recorded as “reduced”; the “PI positive cell rate” value is recorded as “prominently reduced”. Further, in the data set on RAW264.7 cells [2], the “number of FLICA-positive RAW264.7 cells” value is recorded as “reduced” and the “inhibition on cell pyroptosis induced by LPS/ATP, alone versus combination” value is recorded as “weaker than that in the two-BAC combination treatment group”. The “cell viability (CCK8)” value in the data set with RAW264.7 cells [3] is given as “no cell toxicity”. For the same compound, the Kd at recombinant AKT1 protein was found to be 38.3 µM.
